# What was measured:
# C. difficile clnR mutant [1] = assay: qRT-PCR of selected RNA-seq transcripts in LL-37; conditions: 2 µg/ml LL-37; normalized to 630∆erm in BHIS; mean ± SEM, n ≥ 3
# [2] = tested on: TcdA in C. difficile clnR and clnAB mutants; assay: TcdA western blot; conditions: 2 μg/ml LL-37, TY medium, 24 h, 37°C
# [3] = tested on: C. difficile clnR Tn::clnRAB; assay: qRT-PCR of selected RNA-seq transcripts in LL-37; conditions: 2 µg/ml LL-37; normalized to 630∆erm in BHIS; mean ± SEM, n ≥ 3
# C. difficile clnR mutant [4] = assay: clnR and clnA expression by qRT-PCR in LL-37; assay type: cell-based, Clostridioides difficile; conditions: 2 µg/ml LL-37, BHIS
# Description: Fig 4 ClnR acts as a conditional repressor and inducer of clnRAB expression. […] RNA samples were collected and processed for qRT-PCR analysis as described in Methods. Graphs show the mean mRNA expression levels of A) clnR and B) clnA relative to expression in strain 630Δerm in BHIS alone. […] Data were analyzed by two-way ANOVA and Tukey’s multiple comparisons test, with comparisons indicated by brackets. * indicates p < 0.05, ** indicates p ≤ 0.0001.
# [5] = tested on: C. difficile clnAB Tn::clnRAB; assay: Growth in minimal medium with LL-37, maximum doubling time; conditions: mean ± SD, n ≥ 3
# [6] = tested on: clnR expression in C. difficile 630Δerm; assay: clnR expression by qRT-PCR after exposure to antimicrobials (induction specificity); conditions: 2 μg/ml, BHIS; normalized to 630Δerm in BHIS without antimicrobials; mean of three replicates ± SEM
# [7] = tested on: C. difficile clnAB mutant; assay: qRT-PCR of selected RNA-seq transcripts in LL-37; conditions: 2 µg/ml LL-37; normalized to 630∆erm in BHIS; mean ± SEM, n ≥ 3
# C. difficile clnR mutant [8] = assay: Growth in minimal medium with LL-37, maximum doubling time; conditions: mean ± SD, n ≥ 3
# [9] = tested on: tcdA, tcdB, sigD, tcdR, ilvC, CD0341 expression in C. difficile 630Δerm; assay: Toxin and regulator gene expression by qRT-PCR in LL-37
# C. difficile 630Δerm = assay: Minimum bactericidal concentration (MBC); assay type: cell-based, Clostridioides difficile; conditions: 1:10 dilution into BHIS, 24 h, 37°C, anaerobic
# [10] = 0.5 µg/ml LL-37, MM + 30 mM ethanolamine
# [11] = 0.5 µg/ml LL-37, MM + 30 mM fructose
# [12] = 0.5 µg/ml LL-37, MM + 30 mM glucose
# [13] = 0.5 µg/ml LL-37, MM + 30 mM mannitol
# [14] = 0.5 µg/ml LL-37, MM + 30 mM mannose
# [15] = 2 μg/ml LL-37, BHIS, log phase, wild-type cells, p < 0.05
# [16] = 2 µg/ml LL-37, normalized to 630∆erm in BHIS, mean of three replicates ± SEM
smiles,measurement,setting,value
CC[C@H](C)[C@H](NC(=O)[C@H](CCCCN)NC(=O)[C@H](CCC(=O)O)NC(=O)[C@H](CCCCN)NC(=O)[C@H](CO)NC(=O)[C@H](CCCCN)NC(=O)[C@H](CCCNC(=N)N)NC(=O)[C@H](Cc1ccccc1)NC(=O)[C@H](Cc1ccccc1)NC(=O)[C@H](CC(=O)O)NC(=O)CNC(=O)[C@H](CC(C)C)NC(=O)[C@@H](N)CC(C)C)C(=O)NCC(=O)N[C@@H](CCCCN)C(=O)N[C@@H](CCC(=O)O)C(=O)N[C@@H](Cc1ccccc1)C(=O)N[C@@H](CCCCN)C(=O)N[C@@H](CCCNC(=N)N)C(=O)N[C@H](C(=O)N[C@H](C(=O)N[C@@H](CCC(N)=O)C(=O)N[C@@H](CCCNC(=N)N)C(=O)N[C@H](C(=O)N[C@@H](CCCCN)C(=O)N[C@@H](CC(=O)O)C(=O)N[C@@H](Cc1ccccc1)C(=O)N[C@@H](CC(C)C)C(=O)N[C@@H](CCCNC(=N)N)C(=O)N[C@@H](CC(N)=O)C(=O)N[C@@H](CC(C)C)C(=O)N[C@H](C(=O)N1CCC[C@H]1C(=O)N[C@@H](CCCNC(=N)N)C(=O)N[C@H](C(=O)N[C@@H](CCC(=O)O)C(=O)N[C@@H](CO)C(=O)O)[C@@H](C)O)C(C)C)[C@@H](C)CC)C(C)C)[C@@H](C)CC [LL-37],CD630_02840 relative expression,C. difficile clnR mutant [1],2.2 ± 0.5
same,cstA (CD630_26000) relative expression,C. difficile clnR mutant [1],2.3 ± 0.5
same,grdA (CD630_23520) relative expression,C. difficile clnR mutant [1],1.4 ± 0.1
same,mtlA (CD630_23340) relative expression,C. difficile clnR mutant [1],1.2 ± 0.7
same,sigT (csfT; CD630_06770) relative expression,C. difficile clnR mutant [1],2.3 ± 1.1
same,sigU (csfU; CD630_18870) relative expression,C. difficile clnR mutant [1],2.0 ± 0.6
same,vanZ1 (CD630_12400) relative expression,C. difficile clnR mutant [1],13.4 ± 5.8
same,TcdA levels (in words),[2],TcdA levels did not change
same,CD630_02840 relative expression,[3],602.6 ± 455.6
same,cstA (CD630_26000) relative expression,[3],36.3 ± 21.3
same,grdA (CD630_23520) relative expression,[3],1649.2 ± 814.6
same,mtlA (CD630_23340) relative expression,[3],0.6 ± 0.2
same,clnR and clnA expression (in words),C. difficile clnR mutant [4],no longer induced in the clnR mutant
same,Doubling time,"[5]; 0.5 µg/ml LL-37, MM + 30 mM NAG, § p < 0.05 vs no LL-37",83.6 ± 1.7 min
same,Doubling time,[5]; [10],84.0 ± 6.7 min
same,Doubling time,[5]; [11],69.8 ± 2.5 min
same,Doubling time,[5]; [12],70.8 ± 4.8 min
same,Doubling time,[5]; [13],66.4 ± 1.8 min
same,Doubling time,[5]; [14],72.6 ± 3.1 min
same,Doubling time,"[5]; 0.5 µg/ml LL-37, base MM",76.4 ± 2.6 min
same,Relative clnR expression,[6],530.1 ±110.5
same,cstA (CD630_26000) relative expression,[7],2.9 ± 1.2
same,iorA (CD630_23810) relative expression,[7],20.5 ± 7.3
same,mtlA (CD630_23340) relative expression,[7],5.5 ± 4.3
same,sigT (csfT; CD630_06770) relative expression,[7],1.2 ± 0.1
same,sigU (csfU; CD630_18870) relative expression,[7],3.1 ± 1.4
same,vanZ1 (CD630_12400) relative expression,[7],0.9 ± 0.2
same,Doubling time,"C. difficile clnR mutant [8]; 0.5 µg/ml LL-37, MM + 30 mM NAG",86.6 ± 2.5 min
same,Doubling time,C. difficile clnR mutant [8]; [10],84.9 ± 4.6 min
same,Doubling time,C. difficile clnR mutant [8]; [11],72.4 ± 0.9 min
same,Doubling time,C. difficile clnR mutant [8]; [12],74.0 ± 1.7 min
same,Doubling time,C. difficile clnR mutant [8]; [13],67.3 ± 1.5 min
same,Doubling time,C. difficile clnR mutant [8]; [14],78.4 ± 4.9 min
same,Doubling time,"C. difficile clnR mutant [8]; 0.5 µg/ml LL-37, base MM",74.1 ± 4.8 min
same,"tcdA expression, fold increase",[9]; [15],4.6 fold
same,"tcdB expression, fold increase",[9]; [15],2.2 fold
same,sigD fold-change in expression in LL-37,[9]; [16],0.95 ± 0.08
same,tcdR fold-change in expression in LL-37,[9]; [16],1.47 ± 0.44
same,ilvC fold-change in expression in LL-37,"[9]; 2 µg/ml LL-37, normalized to 630∆erm in BHIS, mean of three replicates ± SEM, indicates CodY activity",2.21 ± 0.20
same,"ilvC expression, fold increase","[9]; LL-37, p < 0.05",2.2 fold
same,MBC,C. difficile 630Δerm,20 µg/mL
